# In paper PMC9131077, “Cytosolic Nudix Hydrolase 1 Is Involved in Geranyl β-Primeveroside Production in Tea” (Frontiers in Plant Science, 2022):
# Assays:
# Assay in all cases: LC-MS/MS (MRM) of product GP
# Assay type in all cases: biochemical
# [1] = biological target: T1, CsNUDX1-cyto (Camellia sinensis, UniProt A0A4S4EYR7)
# T1 construct: gene TEA_005538; full length, 156 residues; E. coli BL21 (DE3) Rosetta, pET15b, N-terminal His-tag, tested with and without tag
# [2] = biological target: T2, CsNUDX1-chlo-Δ70 (Camellia sinensis, UniProt A0A4S4EZL9); settings: hydrolysed to GP; transit peptide removed
# T2 construct: gene TEA_000488; N-terminal 70-residue transit peptide removed from the 220-residue protein; E. coli BL21 (DE3) Rosetta, pET15b, N-terminal His-tag
# T2 sequence (A0A4S4EZL9 entry or part of it, stated change not applied): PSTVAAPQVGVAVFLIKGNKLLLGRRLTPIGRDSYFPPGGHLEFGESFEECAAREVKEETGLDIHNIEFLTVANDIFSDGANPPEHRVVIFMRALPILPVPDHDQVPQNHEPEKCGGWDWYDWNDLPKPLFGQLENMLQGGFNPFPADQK
# [3] = biological target: T3, AtNUDX1 (Arabidopsis thaliana, UniProt Q9CA40); settings: hydrolysed to GP; His-tagged positive control
# T3 construct: gene NUDT1; E. coli BL21 (DE3) Rosetta, His-tag kept
# T3 sequence (Q9CA40 whole entry): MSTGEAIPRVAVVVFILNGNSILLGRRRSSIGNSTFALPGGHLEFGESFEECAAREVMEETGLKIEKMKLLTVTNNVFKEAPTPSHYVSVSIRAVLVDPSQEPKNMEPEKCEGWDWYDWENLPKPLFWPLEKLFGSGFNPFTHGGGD
# T1 sequence (A0A4S4EYR7 1-156): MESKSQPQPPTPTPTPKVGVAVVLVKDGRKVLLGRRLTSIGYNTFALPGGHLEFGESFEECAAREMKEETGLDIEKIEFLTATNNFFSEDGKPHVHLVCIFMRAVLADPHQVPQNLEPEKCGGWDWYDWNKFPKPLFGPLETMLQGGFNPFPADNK
SMILES,"LC-MS/MS (MRM) of product GP ([1]; hydrolysed to GP, with and without His-tag)",LC-MS/MS (MRM) of product GP [2],LC-MS/MS (MRM) of product GP [3],LC-MS/MS (MRM) of product GP ([1]; from GPP)
CC(C)=CCC/C(C)=C/COP(=O)(O)OP(=O)(O)O [geranyl pyrophosphate],CsNUDX1-cyto possessed a stronger GPP to GP hydrolysis activity than the Arabidopsis AtNUDX1,exhibited an increased activity compared to the full length CsNUDX1-chlo,stronger GPP to GP hydrolysis activity than the Arabidopsis AtNUDX1,–
CC(C)=CCC/C(C)=C/COP(=O)(O)O [geranyl monophosphate],–,–,–,GP was verified in vitro as the direct chemical product of CsNUDX1-cyto
